In brackets after ≈: the same amount, converted by molar mass. Several values for one entry are separate records, joined by “and”; a condition that tells them apart may be missing. Identical values can stand only once. Entries after “also recorded” stand apart in the source; their conditions may differ. Like-named read-outs stand apart in the source and are kept apart here. Marks after values point to notes of the source that are not given here.
Experiments:
neutrophil migration = test: Neutrophil migration into rat air pouches stimulated with IL-8; type: in vivo
Text: In one embodiment, provided herein is a method for screening for anti-inflammatory or anti-asthma compound in an animal (e.g., rat) pouch assay. In one embodiment, provided herein is a method for screening for anti-inflammatory or anti-asthma compound comprising (a) creating a pouch at the back of an animal (e.g., rat) and introducing a stimuli into the pouch; (b) administrating a compound to the animal; (c) measuring the influx of leukocyte (e.g., neutrophil and/or eosinophil) into the pouch; and (d) comparing the influx of leukocyte to that of a control vehicle; wherein a reduction in the influx of leukocyte indicates the compound is an anti-inflammatory or anti-asthma compound.
The ability of PI3K-δ,γ inhibitors to block leukocyte (e.g., neutrophil) migration was examined in a rat air pouch model. Air pouches were created by subcutaneous air injections into the back of the rats on Days 0 and 3. […] Animals dosed with vehicle only, with or without IL-8 stimulation, served as study controls.

PI3K δ = PI3K δ (Homo sapiens, UniProt O00329); test: In vitro PI3K δ inhibition (lipid kinase assay, TLC or HTRF); conditions: selectivity
[1] = Plasma protein binding, rat plasma; type: in vitro ADME; conditions: 100 μM (41700 ng/mL)
Text: (§1) […]. […] […].

[2] = Clinical study in healthy adult subjects: pharmacokinetics; type: in vivo, human; conditions: for half-life / AUC(0-t) / AUC(0-inf) / Cmax / Vd/F: human, plasma; for Vd/F: read-out: Vz/F
[3] = Pharmacokinetics in Beagle dogs; type: in vivo, dog; conditions: PO 5 mg/kg
human P-glycoprotein = biological target: T1, human P-glycoprotein (Homo sapiens, UniProt P08183); test: Interaction with human P-glycoprotein in Caco-2 cell monolayers; type: in vitro ADME
T1 construct: endogenous in cells; host or cells: Caco-2 cell monolayers

central nervous system = test: Neurofunctional study (FOB, motor activity) in Sprague-Dawley rat; conditions: male rats
TL2/TLR6 = test: PAM2CSK4 induced cytokine production in PBMCs; type: cell-based, human
Experimental: (§2) These experiments were conducted using PBMCs.
PAM2CSK4 signals through TL2/TLR6, which plays a role in atherosclerosis, colitis, ischemic injury, e.g., cardiac events and stroke.

[4] = Plasma protein binding, monkey plasma; type: in vitro ADME; conditions: 100 μM (41700 ng/mL)
Text: as §1

[5] = Pharmacokinetics in Sprague-Dawley rats; type: in vivo, rat
PBMCs = test: R848 induced cytokine production in PBMCs; type: cell-based, human
Experimental: as §2

[6] = system: LPS-induced pulmonary inflammation; test: Murine model of LPS-induced lung inflammation; type: in vivo, mice; conditions: 3 mg/kg PO 60 minutes prior to LPS; 6 h after challenge
Experimental: Multiple parameters of pulmonary inflammation were determined 6 h after LPS challenge. Instillation of LPS induced significant influx of leukocytes, mostly neutrophils, into the airways, as assessed by counting the number of cells in the bronchoalveolar lavage (BAL) fluid.

hERG channel current = hERG channel current (Homo sapiens, UniProt Q12809); test: In vitro hERG assay; type: cell-based
[7] = Pharmacokinetics in BALB/c mice; type: in vivo, mouse
PI3K-β = biological target: T2, PI3K-β (Homo sapiens, UniProt P42338); test: PI3K-β specific assay in platelets (thrombin peptide, activated GPIIb/IIIa); type: cell-based
T2 construct: from tissue; host or cells: platelets in whole blood

[8] = system: ovalbumin-induced lung inflammation; test: Ovalbumin-induced murine model of asthma
TLR9 = test: CPG-A induced cytokine production in PBMCs; type: cell-based, human
Experimental: Human PBMCs were stimulated with CPG-A. CPG-A selectively activates PDCs, inducing IFN-α production via TLR9. IFN-α is a PDC cell selective readout. Primary human PBMCs from two normal human donors were used as a source of PDC cells. 200 K cells per well were used. […] Then the cells were treated with the specified concentration of CPG-A for 16 hours. RPMI-5% serum was employed.
as §2

[9] = DDI portion, 10 mg with 200 mg q12h ketoconazole
[10] = single oral dose 1 mg, mean (%CV)
[11] = single oral dose 2 mg, mean (%CV)
[12] = single oral dose 5 mg, mean (%CV)
[13] = single oral dose 10 mg, mean (%CV)
[14] = single oral dose 20 mg, mean (%CV)
[15] = single oral dose 30 mg, mean (%CV)

Sequence of hERG channel current (Q12809 whole entry): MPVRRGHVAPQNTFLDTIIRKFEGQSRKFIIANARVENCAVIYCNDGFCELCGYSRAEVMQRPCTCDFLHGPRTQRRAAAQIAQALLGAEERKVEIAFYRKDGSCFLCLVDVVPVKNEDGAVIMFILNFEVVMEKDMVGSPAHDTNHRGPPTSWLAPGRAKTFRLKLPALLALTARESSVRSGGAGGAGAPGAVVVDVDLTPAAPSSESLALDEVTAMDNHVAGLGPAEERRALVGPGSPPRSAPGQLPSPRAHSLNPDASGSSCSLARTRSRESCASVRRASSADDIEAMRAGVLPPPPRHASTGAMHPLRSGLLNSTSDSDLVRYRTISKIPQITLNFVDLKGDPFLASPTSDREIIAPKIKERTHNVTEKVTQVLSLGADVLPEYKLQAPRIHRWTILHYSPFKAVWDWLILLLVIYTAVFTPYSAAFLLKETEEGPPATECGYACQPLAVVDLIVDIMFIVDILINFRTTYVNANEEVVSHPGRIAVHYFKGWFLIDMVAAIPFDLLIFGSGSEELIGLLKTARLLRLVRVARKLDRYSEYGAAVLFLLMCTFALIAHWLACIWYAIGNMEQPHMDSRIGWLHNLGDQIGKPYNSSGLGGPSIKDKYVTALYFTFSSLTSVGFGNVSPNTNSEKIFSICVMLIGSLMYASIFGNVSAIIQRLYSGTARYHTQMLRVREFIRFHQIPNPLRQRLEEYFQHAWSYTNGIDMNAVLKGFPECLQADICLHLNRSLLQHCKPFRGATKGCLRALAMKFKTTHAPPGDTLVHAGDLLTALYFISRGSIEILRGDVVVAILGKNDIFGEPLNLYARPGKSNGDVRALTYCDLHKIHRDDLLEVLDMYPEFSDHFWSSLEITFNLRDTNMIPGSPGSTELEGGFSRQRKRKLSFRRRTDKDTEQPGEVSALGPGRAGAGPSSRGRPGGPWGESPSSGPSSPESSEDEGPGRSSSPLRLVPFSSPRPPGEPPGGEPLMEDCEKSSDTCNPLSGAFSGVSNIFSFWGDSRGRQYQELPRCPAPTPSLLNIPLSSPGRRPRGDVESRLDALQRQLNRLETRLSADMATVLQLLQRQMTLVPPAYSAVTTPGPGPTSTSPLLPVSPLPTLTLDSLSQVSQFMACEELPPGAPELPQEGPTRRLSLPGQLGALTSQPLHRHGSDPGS
T1 sequence (P08183 whole entry): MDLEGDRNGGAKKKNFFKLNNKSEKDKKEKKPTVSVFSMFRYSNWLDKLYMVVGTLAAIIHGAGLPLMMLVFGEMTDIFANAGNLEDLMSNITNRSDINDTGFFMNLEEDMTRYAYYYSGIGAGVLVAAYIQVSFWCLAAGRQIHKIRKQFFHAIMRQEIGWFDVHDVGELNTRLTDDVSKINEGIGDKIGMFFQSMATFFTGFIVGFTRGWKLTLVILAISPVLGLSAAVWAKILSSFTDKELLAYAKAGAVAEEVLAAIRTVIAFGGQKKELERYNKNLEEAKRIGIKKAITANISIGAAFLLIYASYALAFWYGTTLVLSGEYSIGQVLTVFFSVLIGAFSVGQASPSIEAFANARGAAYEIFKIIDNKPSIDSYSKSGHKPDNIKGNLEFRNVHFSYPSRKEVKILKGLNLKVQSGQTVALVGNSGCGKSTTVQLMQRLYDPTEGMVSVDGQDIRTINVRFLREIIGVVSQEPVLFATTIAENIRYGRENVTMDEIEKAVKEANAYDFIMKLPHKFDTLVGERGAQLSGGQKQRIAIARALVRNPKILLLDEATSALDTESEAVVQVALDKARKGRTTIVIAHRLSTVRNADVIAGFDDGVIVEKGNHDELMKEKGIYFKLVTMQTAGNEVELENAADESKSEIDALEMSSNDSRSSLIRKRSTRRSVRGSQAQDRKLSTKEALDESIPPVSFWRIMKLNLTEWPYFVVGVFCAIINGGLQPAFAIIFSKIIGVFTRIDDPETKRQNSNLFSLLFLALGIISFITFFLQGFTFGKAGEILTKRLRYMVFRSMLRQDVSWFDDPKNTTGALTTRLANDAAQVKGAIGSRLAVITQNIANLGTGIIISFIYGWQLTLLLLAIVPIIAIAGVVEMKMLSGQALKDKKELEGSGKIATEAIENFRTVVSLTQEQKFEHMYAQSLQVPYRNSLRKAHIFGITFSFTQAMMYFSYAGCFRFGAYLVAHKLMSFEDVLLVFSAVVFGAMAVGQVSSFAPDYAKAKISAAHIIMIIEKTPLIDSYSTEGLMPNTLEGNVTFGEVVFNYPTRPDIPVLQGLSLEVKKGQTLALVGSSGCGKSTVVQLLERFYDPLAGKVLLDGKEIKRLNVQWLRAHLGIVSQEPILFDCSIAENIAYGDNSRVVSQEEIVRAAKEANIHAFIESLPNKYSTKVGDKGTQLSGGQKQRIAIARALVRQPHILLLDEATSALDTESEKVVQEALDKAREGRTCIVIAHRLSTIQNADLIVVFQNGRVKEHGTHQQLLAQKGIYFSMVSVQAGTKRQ
T2 sequence (P42338 whole entry): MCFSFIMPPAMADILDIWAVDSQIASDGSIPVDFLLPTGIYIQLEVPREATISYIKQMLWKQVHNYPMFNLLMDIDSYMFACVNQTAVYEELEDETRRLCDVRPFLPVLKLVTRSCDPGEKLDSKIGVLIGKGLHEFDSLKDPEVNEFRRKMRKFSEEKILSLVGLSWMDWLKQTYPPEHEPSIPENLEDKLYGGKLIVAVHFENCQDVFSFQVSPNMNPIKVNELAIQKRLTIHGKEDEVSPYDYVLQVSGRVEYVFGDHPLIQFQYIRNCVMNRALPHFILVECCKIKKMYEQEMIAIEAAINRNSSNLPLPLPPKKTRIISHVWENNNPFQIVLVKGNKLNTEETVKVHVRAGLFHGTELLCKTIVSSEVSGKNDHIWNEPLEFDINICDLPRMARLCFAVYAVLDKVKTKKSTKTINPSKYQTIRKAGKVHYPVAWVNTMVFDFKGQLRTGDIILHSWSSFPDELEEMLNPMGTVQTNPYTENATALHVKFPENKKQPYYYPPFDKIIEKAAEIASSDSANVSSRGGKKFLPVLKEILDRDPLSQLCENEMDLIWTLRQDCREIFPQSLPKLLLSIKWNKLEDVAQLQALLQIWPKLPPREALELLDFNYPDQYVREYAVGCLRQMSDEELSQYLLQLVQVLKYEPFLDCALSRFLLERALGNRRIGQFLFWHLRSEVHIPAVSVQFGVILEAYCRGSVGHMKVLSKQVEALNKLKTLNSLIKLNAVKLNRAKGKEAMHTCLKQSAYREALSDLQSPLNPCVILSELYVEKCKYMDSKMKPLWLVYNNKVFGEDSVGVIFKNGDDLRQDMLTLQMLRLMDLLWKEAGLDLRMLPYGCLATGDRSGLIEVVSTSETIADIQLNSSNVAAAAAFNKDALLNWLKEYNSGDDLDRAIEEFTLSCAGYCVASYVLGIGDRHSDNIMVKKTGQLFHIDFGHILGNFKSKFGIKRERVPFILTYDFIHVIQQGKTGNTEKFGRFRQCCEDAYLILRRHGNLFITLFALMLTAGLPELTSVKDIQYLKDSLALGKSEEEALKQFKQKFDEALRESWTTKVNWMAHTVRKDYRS
T2 sequence (P27986 whole entry partner): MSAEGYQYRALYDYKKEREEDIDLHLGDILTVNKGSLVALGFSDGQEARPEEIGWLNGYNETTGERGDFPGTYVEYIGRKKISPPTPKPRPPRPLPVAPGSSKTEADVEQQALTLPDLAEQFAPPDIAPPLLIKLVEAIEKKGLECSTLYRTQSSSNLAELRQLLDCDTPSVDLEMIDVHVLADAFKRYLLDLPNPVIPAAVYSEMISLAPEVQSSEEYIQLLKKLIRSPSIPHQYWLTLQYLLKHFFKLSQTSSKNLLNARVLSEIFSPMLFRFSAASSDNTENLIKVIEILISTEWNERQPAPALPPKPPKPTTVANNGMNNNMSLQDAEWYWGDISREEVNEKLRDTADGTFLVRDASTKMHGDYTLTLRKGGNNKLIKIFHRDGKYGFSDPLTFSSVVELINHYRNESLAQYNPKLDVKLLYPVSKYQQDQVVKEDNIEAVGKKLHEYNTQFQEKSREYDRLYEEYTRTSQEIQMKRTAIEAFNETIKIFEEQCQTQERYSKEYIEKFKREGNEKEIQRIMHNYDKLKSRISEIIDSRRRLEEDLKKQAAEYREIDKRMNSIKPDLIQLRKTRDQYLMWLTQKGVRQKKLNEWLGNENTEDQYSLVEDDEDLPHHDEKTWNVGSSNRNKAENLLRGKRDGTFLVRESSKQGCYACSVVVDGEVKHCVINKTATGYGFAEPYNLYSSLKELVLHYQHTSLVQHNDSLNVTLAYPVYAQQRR

For `C[C@H](Nc1ncnc2[nH]cnc12)c1cc2cccc(Cl)c2c(=O)n1-c1ccccc1` [Compound 292], the “neutrophil influx into IL-8 stimulated air pouches” value (neutrophil migration; 1 mg/kg PO) was “only slightly”, the “neutrophil influx into IL-8 stimulated air pouches” value (neutrophil migration; 10 and 25 mg/kg PO) was “inhibits; also recorded: significantly blocked” and the “lower dose inhibiting PI3K-δ compared to PI3K-γ, PI3K-β or PI3K-α” value (PI3K δ) was “at least 10 fold”. The “protein bound in rat plasma” value [1] was 85.8%, the “excretion of unchanged compound in urine” value [2] was < 2 % of the administered dose and the “time to peak plasma concentrations” value [2] was 0.5 to 1 h. For the same compound, the accumulation ([2]; 14 days of Q12 h oral administration) was “less than 2 fold”, the “increase of AUC0-inf in the presence of ketoconazole” value [2, 9] was ~295% and the “increase of AUC0-last in the presence of ketoconazole” value [2, 9] was ~285%. The “increase of Cmax in the presence of ketoconazole” value [2, 9] was “approximately 66%”, the “decrease of Cmax in the presence of a high fat meal” value ([2]; food effect portion, 25 mg) was “approximately 10%” and the half-life ([2]; oral, following a single dose, read-out: half-life) was 3.5 to 9.5 h. For the same compound, the AUC(0-t) ([2]; po, 1 mg, single oral dose 1 mg, mean (%CV), read-out: AUC(0-24)) was 149 ng·h/mL, the AUC(0-t) ([2]; po, 1 mg, single oral dose 1 mg, mean (%CV), read-out: AUC(0-t)) was 148 ng·h/mL and the half-life ([2]; po, 1 mg, single oral dose 1 mg, mean (%CV), read-out: T1/2 (converted)) was 3.52 h. It also gave an AUC(0-t) ([2]; po, 2 mg, single oral dose 2 mg, mean (%CV), read-out: AUC(0-24)) of 289 ng·h/mL, an AUC(0-t) ([2]; po, 2 mg, single oral dose 2 mg, mean (%CV), read-out: AUC(0-t)) of 291 ng·h/mL and a half-life ([2]; po, 2 mg, single oral dose 2 mg, mean (%CV), read-out: T1/2 (converted)) of 5.43 h. It also gave an AUC(0-t) ([2]; po, 5 mg, single oral dose 5 mg, mean (%CV), read-out: AUC(0-24)) of 733 ng·h/mL, an AUC(0-t) ([2]; po, 5 mg, single oral dose 5 mg, mean (%CV), read-out: AUC(0-t)) of 735 ng·h/mL and a half-life ([2]; po, 5 mg, single oral dose 5 mg, mean (%CV), read-out: T1/2 (converted)) of 5.43 h. It also gave an AUC(0-t) ([2]; po, 10 mg, single oral dose 10 mg, mean (%CV), read-out: AUC(0-24)) of 891 ng·h/mL, an AUC(0-t) ([2]; po, 10 mg, single oral dose 10 mg, mean (%CV), read-out: AUC(0-t)) of 905 ng·h/mL and a half-life ([2]; po, 10 mg, single oral dose 10 mg, mean (%CV), read-out: T1/2 (converted)) of 9.47 h. The AUC(0-t) ([2]; po, 20 mg, single oral dose 20 mg, mean (%CV), read-out: AUC(0-24)) was 2190 ng·h/mL, the AUC(0-t) ([2]; po, 20 mg, single oral dose 20 mg, mean (%CV), read-out: AUC(0-t)) was 2240 ng·h/mL and the half-life ([2]; po, 20 mg, single oral dose 20 mg, mean (%CV), read-out: T1/2 (converted)) was 7.79 h. For the same compound, the AUC(0-t) ([2]; po, 30 mg, single oral dose 30 mg, mean (%CV), read-out: AUC(0-24)) was 3260 ng·h/mL, the AUC(0-t) ([2]; po, 30 mg, single oral dose 30 mg, mean (%CV), read-out: AUC(0-t)) was 3380 ng·h/mL and the half-life ([2]; po, 30 mg, single oral dose 30 mg, mean (%CV), read-out: T1/2 (converted)) was 8.12 h. For the same compound, the AUC(0-inf) [2, 10] was 151 ng·h/mL, the Cmax [2, 10] was 43.4 ng/mL and the Vd/F [2, 10] was 38.8 L. It also gave an AUC(0-inf) [2, 11] of 296 ng·h/mL, a Cmax [2, 11] of 78.8 ng/mL and a Vd/F [2, 11] of 57.9 L. It also gave an AUC(0-inf) [2, 12] of 743 ng·h/mL, a Cmax [2, 12] of 246 ng/mL and a Vd/F [2, 12] of 53 L. For the same compound, the AUC(0-inf) [2, 13] was 914 ng·h/mL, the Cmax [2, 13] was 454 ng/mL and the Vd/F [2, 13] was 147 L. For the same compound, the AUC(0-inf) [2, 14] was 2250 ng·h/mL, the Cmax [2, 14] was 997 ng/mL and the Vd/F [2, 14] was 99.1 L. The AUC(0-inf) [2, 15] was 3400 ng·h/mL, the Cmax [2, 15] was 1140 ng/mL and the Vd/F [2, 15] was 113 L. For the same compound, the Foral ([3]; calculated using 0.5 mg/kg IV dose as reference and AUC0-last) was 97^g,i %, the Foral ([3]; calculated using 1 mg/kg IV dose as reference and AUC0-last) was 40% and 40^h,i % and the P-gp substrate status (human P-glycoprotein) was “is a P-gp substrate”. For the same compound, the “inhibition of active transport of other P-gp substrates” value (human P-glycoprotein) was “has the potential to inhibit the active transport of other P-gp substrates”, the locomotor activity (central nervous system; 2 h after a 350 mg/kg dose) was “Significant decreases” and the “effects on the central nervous system” value (central nervous system; dose levels ≦50 mg/kg) was “No effects”. The “qualitative or quantitative FOB parameters” value (central nervous system; single oral dose up to 350 mg/kg, up to 24 h post-dose) was “no changes”, the “PAM2CSK4 induced IL-1 production” value (TL2/TLR6) was “Inhibited” and the “PAM2CSK4 induced IL-6 production” value (TL2/TLR6) was “Inhibited”. For the same compound, the “PAM2CSK4 induced IL-8 production” value (TL2/TLR6) was “Inhibited”, the “PAM2CSK4 induced TNF-α production” value (TL2/TLR6) was “Inhibited” and the “protein bound in monkey plasma” value [4] was 76.8%. For the same compound, the Foral ([5]; Sprague-Dawley rats, PO 10 mg/kg suspension) was 57%, the half-life ([5]; Sprague-Dawley, rat, in vivo, intravenous, 2 mg/kg) was < 2 h and the “R848 induced IFN-α” value (PBMCs) was “did not detectably affect”. For the same compound, the “R848 induced IL-1” value (PBMCs) was “slightly inhibited”, the “R848 induced IL-6” value (PBMCs) was “did not detectably affect” and the “R848 induced IL-8” value (PBMCs) was “did not detectably affect”. For the same compound, the “R848 induced TNF-α” value (PBMCs) was “did not detectably affect”, the “LPS-induced total leukocyte and neutrophil influx in BAL fluid” value [6] was “inhibited” and the “Hill coefficient (hERG)” value (hERG channel current) was 1.3. The “IC50 on hERG potassium current” value (hERG channel current) was 20.8 µg/mL (≈ 49.9 µM), the Foral ([7]; BALB/c mice, PO 10 mg/kg suspension, calculated using AUC0-last) was 7% and 7^i % and the half-life ([7]; BALB/c, mouse, in vivo, iv, 10 mg/kg) was < 2 h. The “window between PI3K-γ and PI3K-β inhibition in whole blood” value (PI3K-β) was “about 4 fold”, the “leukocyte migration into the bronchoalveolar space” value ([8]; FIG. 15) was “inhibited” and the “eosinophil influx into the airway space (BAL fluid)” value ([8]; all doses tested, 0.03 to 10 mg/kg PO) was “significantly blocked”. The “lymphocyte and monocyte accumulation in BAL fluid” value ([8]; ovalbumin induced) was “reduced”, the “CPG-A induced IL-6 production” value (TLR9; PBMCs) was “Inhibited” and the “CPG-A induced IL-8 production” value (TLR9; PBMCs) was “Inhibited”. For the same compound, the “CPG-A induced TNF-α production” value (TLR9; PBMCs) was “Inhibited” and the “CPG-A induced IFN-α production” value (TLR9; human PBMCs) was “potently inhibited; also recorded: blocked”.
